Reference: patent publication US20090297624A1, “ARSENIC THERAPY FOR AUTOIMMUNE AND/OR INFLAMMATORY DISEASES IN MICE AND HUMANS” (CENTRE NATIONALE DE LA RECHERCHE SCIENTIFIQUE (CNRS), priority 2002, published 2009)
Several values for one entry are separate records, joined by “and”; a condition that tells them apart may be missing. Equal values may be shown once.

What was measured:
[1] = system: MRL/lpr mouse; assay: Curative arsenic (As2O3) treatment of MRL/lpr autoimmune mice; type: in vivo
From the text: The inventors have studied mice referred to as MRL mice homozygous for the lpr mutation (MRL/lpr). Lymphoproliferation (lpr) results in an accumulation of activated T lymphocytes, of phenotype CD4^+CD8^− or CD4^−CD8^+ which have escaped the process of negative regulation via the apoptotic pathway. Thus, in MRL/lpr mice, hypertrophy of lymph nodes occurs, the mass of which is 100 times greater than that of the lymph nodes of MRL+/+mice, which are congenic for the lpr gene, and a spleen whose size is multiplied by 7 and a thymus whose weight, at the 22nd week, is double that of the MRL+/+ mice are observed. These activated T lymphocytes which accumulate will gradually repress the expression of their CD4 or CD8 receptors and become double-negative T lymphocytes having the phenotype: TCRαβCD4^−CD8^−B220^+, which will be responsible for the lymphoproliferation.
The MRL/lpr mouse is in particular a spontaneous model of autoimmune diseases such as disseminated lupus erythematosus with the presence of erythematous lesions of the skin and of rheumatoid arthritis. […] These mice produce, as they age, a large quantity of autoantibodies which are responsible for a lethal glomerulonephritis due to immunocomplex deposits in the glomeruli of the kidney. Thus, the lifespan of the MRL/lpr mouse is considerably shortened compared with that of the MRL+/+ mouse: ˜4-5 months in the MRL/lpr mouse compared with ˜2 years in the MRL+/+ mouse.
(§1) Initially, the inventors determined the optimum dose of arsenic (As2O3) to be injected into the MRL/lpr mice. Two concentrations were chosen: 1 and 5 μg of As2O3/g of mouse. At date T0, these injections were given daily. […] Knowing that the MRL/lpr autoimmune mice die, on average, after 4 to 5 months, compared with the normal MRL+/+ mice which die after ˜2 years, the inventors decided to conserve, for the subsequent treatments, only the dose of 5 μg/g of mice.
From the end of the first week of treatment, the inventors formed 5 groups of animals: • b 1st group, aimed at the curative treatment of an already present pathology, • 2nd group, aimed at preventing the appearance of pathologies, • 3rd group, aimed at determining the lifespan of the treated animals, • 4th group, aimed at determining the dose effect, • 5th group, aimed at evaluating the effect of stopping the treatment.
(§2) Each of the five groups has its controls consisting in injecting the dilution buffer for the arsenic. In addition, the animals present in the control and treated groups are derived from the same litter, which makes it possible to obtain reliable comparisons. At T0+5 months, more than 60 mice (MRL/lpr and MRL+/+) are undergoing treatment.
This study is aimed at the curative treatment of an already present pathology.
(§3) In parallel with these studies on the skin, other organs that are targets for autoimmune pathologies, such as the kidney, the lung, the liver, the eye, etc., were removed and analyzed by anatomopathology. In addition, these various organs, along with the spleen, the lymph nodes and the thymus, were weighed.
After 1 month and 20 days of treatment, a group of 3 control MRL/lpr mice and a group of 3 treated MRL/lpr mice were sacrificed in order to evaluate the effectiveness of the treatment on the lympho-proliferation. The organs analyzed were the thymus, the spleen and the lymph nodes. […] The phenotype of the lymphoid populations present in this spleen and this node was determined by flow cytometry. […] In addition, this cell population of abnormal phenotype is replaced with T lymphocytes of normal phenotype CD4^+CD8^− and CD4^−CD8^+ (FIG. 5). However, the level of reduction of the number of these double-negative T cells depends on the duration of the treatment. […]

[2] = system: MRL+/+ mouse; assay: Arsenic treatment of control MRL+/+ mice; type: in vivo
Experimental: as §1, §2, §3
(§4) The aim of this group of animals, which was begun at T0, is to evaluate the preventive effect of an arsenic treatment on the development of the lymphoproliferation and of the autoimmune pathologies. To do this, 4 groups of animals 1.5 months old were formed. Two of these groups consist of MRL/lpr mice and the other two groups consist of MRL+/+ mice. One MRL/lpr group and one MRL+/+ group were treated with 5 μg of arsenic per gram of mouse, and the other two control groups were treated with the dilution buffer for the arsenic. At T0+1 month, animals from each group were sacrificed. The organs analyzed were the thymus, the spleen, the lymph nodes, the skin, the liver, the kidney and the heart. […] The arsenic therefore has a preventive effect on the development of the lymphoproliferation. The phenotype of the lymphoid populations present in this spleen and this node was determined by flow cytometry. As for the results for group 1, the arsenic makes it possible to eliminate the population of double-negative T cells which accumulate as the MRL/lpr mouse ages. In addition, the organs of these treated mice have a normal weight; there is therefore neither the lympho-proliferation nor the hepatomegaly that are observed in the control mice. The liver, the spleen, a lymph node, an eye, etc., were removed in order to be analyzed by anatomopathology.

[3] = system: MRL/lpr mouse; assay: Preventive arsenic treatment of MRL/lpr mice; type: in vivo
Experimental: This study is aimed at preventing the appearance of the pathologies.
as §4
It is desirable to determine very precisely the preventive and curative effect of various doses of arsenic on the evolution of the pathologies developed by the MRL/lpr mice. Five groups of animals (MRL/lpr and MRL+/+) were treated with the following concentrations: 2.5, 5, 7.5, 10 and 15 μg/g of mouse.

[4] = system: NOD (non obese diabetic) mice; assay: Arsenic treatment of diabetic NOD mice, glucose in urine; type: in vivo, mouse; details: 5-month-old female NOD mice treated for 2 months
Experimental: 5-Month-old female NOD (non obese diabetic) mice, which were developing the first symptoms of diabetes, were treated for 2 months with arsenic. The evolution of the pathology was evaluated by measuring the amount of glucose in the urine.

[5] = system: MRL/lpr→MRL+/+ chimeras; assay: As2O3 treatment of MRL/lpr→MRL+/+ chimeras (GVH reaction); type: in vivo, mouse
Experimental: In addition, lethally irradiated MRL+/+ mice had their bone marrow reconstituted with bone marrow from MRL/lpr mice (MRL/lpr→MRL+/+ chimeras) or with bone marrow from MRL+/+ mice (MRL+/+→MRL+/+ chimeras) as a control. After reconstitution, the chimeras are treated with arsenic or are not treated. While 100% of the untreated MRL/lpr→MRL+/+ chimeras died of a graft-versus-host (GvH) reaction two weeks after the transplant, the chimeras treated with arsenic were alive. The arsenic is therefore effective against GvH and makes it possible to spectacularly increase the survival of the animals.
(§5) Hematopoietic chimeras. Spleen and bone marrow cells from MRL/lpr were injected i.v. into MRL+/+ lethally irradiated (1000 cGy) in a ^137Cesium irradiator (MRL/Lpr→MRL+/+ chimeras). The control group consisted of irradiated MRL+/+ grafted with MRL+/+ cells (MRL+/+→MRL+/+ chimeras). All mice used in this graft protocol were sex matched.
(§6) MRL/Lpr→MRL+/+ and MRL+/+→MRL+/+ chimeras were injected i.p. daily with 2.5, 5, 7.5, 10 or 15 μg/g body weight of As2O3; controls received a daily i.p. injection of PBS (volume weight-determined). Treatments were initiated one week post-grafting.
Blood samples were collected at different times after grafting and glutamic-oxaloacetic transaminase (GOT) and glutamic-pyruvic transaminase (GPT) levels were measured (IU/l).
(§7) Serum levels of IFN-α, IFN-γ, soluble FasL, IL-18, TNF-α were assayed using the Mouse Interferon-alpha (PBL Biomedical laboratories, New Jersey, USA), the Mouse Interferon-gamma ELISA Ready-SET-Go (eBioscience, San Diego, Calif.), Mouse Fas Ligand Immunossay (Quantikine M kit; R&D systems, Minneapolis, Minn.), Mouse IL-18 ELISA (R&D Systems), Mouse TNF-α Immunoassay (R&D systems), respectively, following the manufacturer's instructions.
Serum levels of nitrite were measured using the Nitric Oxide quantification kit (Active Motif, Rixensart, Belgium), according to the manufacturer's instructions (data not shown).

[6] = system: MRL+/+→MRL+/+ chimeras; assay: As2O3 treatment of control MRL+/+→MRL+/+ chimeras; type: in vivo, mouse; details: serum ELISA
Experimental: as §5, §6, §7

[7] = MRL/lpr mice treated with arsenic
[8] = MRL/lpr, treated with arsenic for two months, treatment then stopped for two months
[9] = end of the first month of treatment, 5 μg/g
[10] = MRL+/+ mice treated with arsenic
[11] = preventive, 5 μg/g, at T0+1 month

SMILES: O=[As]O[As]=O (centres unmarked) [As2O3]
- curative effect (skin lesions, size of the nodes) ([1]; 2.5 μg/g of mouse): not sufficiently effective
- lupus-specific skin lesions ([1]; 5 μg of As2O3/g of mouse daily, after one week of treatment): spectacular signs of improvement
- skin lesions ([1]; 5 μg/g): complete disappearance of skin lesions
- skin lesions ([1]; 7.5 μg/g): complete disappearance of skin lesions
- skin lesions ([1]; 10 μg/g): complete disappearance of skin lesions
- toxicity, curative treatment ([1]; 15 μg/g of mouse): lethal in a few days
- immunocomplexes in the kidney ([1]; FIG. 7): absence of immunocomplexes in the kidney
- infiltration of the kidney by cells of the immune system ([1]; FIG. 7): do not shown any infiltration
- Organ weight, 2 lungs [1, 7]: 0.33 grams and 0.40 grams
- Organ weight, axillary nodes [1, 7]: 0.01 grams and 0.02 grams
- Organ weight, heart [1, 7]: 0.20 grams and 0.25 grams
- Organ weight, kidney [1, 7]: 0.52 grams and 0.53 grams
- Organ weight, liver [1, 7]: 2.58 grams and 2.89 grams
- Organ weight, mesenteric nodes [1, 7]: 0.05 grams
- Organ weight, spleen [1, 7]: 0.13 grams and 0.17 grams
- Organ weight, 2 lungs [1, 8]: 0.51 grams and 0.50 grams
- Organ weight, heart [1, 8]: 0.29 grams and 0.26 grams
- Organ weight, kidney [1, 8]: 0.55 grams
- Organ weight, liver [1, 8]: 3.21 grams and 3.12 grams
- Organ weight, mesenteric nodes [1, 8]: 1.97 grams and 1.03 grams
- size of the spleen and of a mesenteric node ([1]; after 1 month and 20 days of treatment, FIG. 4): spectacular decrease
- population of double-negative T lymphocytes TCRαβCD4-CD8-B220+ ([1]; after 1 month and 20 days of treatment, flow cytometry of spleen and node): virtually complete elimination
- survival ([1]; after 4 months, FIG. 9 legend): all the treated animals are alive
- survival and signs of pathology ([1]; after 35 weeks of treatment, FIG. 9): still alive with no signs of lymphoproliferation or of autoimmune pathologies
- pulmonary architecture, infiltration by lymphoid cells ([1]; anatomopathology, FIG. 3): normal pulmonary architecture
- amount of cytokines (alpha-IFN, gamma-IFN, IL-18, TNF-alpha, soluble FasL) ([1]; compared with normal MRL+/+ mice, FIG. 6): returns the amount of cytokines to a normal level
- exophthalmia [1, 9]: spectacular decrease
- lupus-related skin lesions [1, 9]: complete disappearance
- lowest effective dose ([1]; mouse): 5 µg/g
- glomerulonephritis ([1]; mouse, in vivo): significant reduction
- weight of lymph nodes, spleen and liver compared to MRL+/+ mouse ([1]; summary of table 1): returns the following organs to a normal weight
- double-negative T cells ([1]; treatment of three months): eliminate all the double-negative T cells
- pathologies after stopping treatment ([1]; treatment stopped for three months): reappearance of the lymphoproliferation and of the hepatomegaly
- treated mice alive ([1]; very sick MRL/lpr mice, at T0+14 weeks): 100%
- Organ weight, 2 lungs [2, 10]: 0.32 grams and 0.30 grams
- Organ weight, axillary nodes [2, 10]: 0.01 grams
- Organ weight, heart [2, 10]: 0.22 grams
- Organ weight, kidney [2, 10]: 0.44 grams
- Organ weight, liver [2, 10]: 2.40 grams and 2.45 grams
- Organ weight, mesenteric nodes [2, 10]: 0.05 grams and 0.03 grams
- Organ weight, spleen [2, 10]: 0.10 grams and 0.15 grams
- treatment-related pathologies ([2]; MRL+/+ mice, 5 μg/g, at T0+5 months): no sign of treatment-related pathologies
- toxicity, preventive treatment ([3]; 15 μg/g of mouse): very toxic and the animals died after two months
- non-lymphoid organs such as the heart or the kidney [3, 11]: not modified by the treatment
- organ weight (lymphoproliferation, hepatomegaly) [3, 11]: normal weight
- lymphoproliferation ([3]; preventive, 1.5 months old mice, 5 μg/g, at T0+1 month): virtually complete absence of the lymphoproliferation
- glucose level in the urine [4]: normal glucose level in the urine
- soluble and membrane-associated FasL levels ([5]; ELISA of sera and Western blotting of lymphoid cell lysates, FIG. 10A): sharply decreased
- serum IFN-α level ([5]; ELISA, FIG. 11A): maintained normal cytokine concentrations
- serum TNF-α level ([5]; ELISA, FIG. 11B): maintained normal cytokine concentrations
- Transaminase levels (GOT) ([5]; FIG. 10B): normalised
- level of other inflammatory cytokines and NO ([5]; data not shown): reduced
- survival ([5]; male and female chimeras with established GVH reaction, P<0.001, FIG. 12): significantly prolonged survival
- survival of chimeras ([5]; two weeks after the transplant): alive
- IFN-α synthesis ([6]; FIG. 11A): not affected
- TNF-α synthesis ([6]; FIG. 11B): not affected
